Data as given in patent US20250197425A1, “2,6,9-TRISUBSTITUTED PURINES” (ASTRAZENECA AB, priority 2022, published 2025).
Converted amounts (≈) assume the structure as drawn. Like-named read-outs stand apart in the source and are kept apart here.

Experiments:
[1] = test system: POLR2A Ser2 phosphorylation (CDK9); assay: POLR2A Ser2 phosphorylation imaging assay in MCF-7 cells; format: cell-based; details: Homo sapiens, MCF7, 2 h, read-out: POLR2A Ser2 phosphorylation IC50
Procedure: Compounds were tested to assess their effect on CDK9 activity in a cellular context. […] During the cell cycle, CDK9 is a component of a multiprotein complex that phosphorylates POLR2A Ser2 which results in transcription elongation.
[…] were fixed by addition of 40 μL/well of 8% paraformaldehyde and incubated for 10 minutes at room temperature. The plates were washed three times with 50 μL/well PBS using a Biotek EL406 plate washer and then permeabilized for 10 minutes at room temperature in 0.3% Triton X100 in PBS. After washing as before, the plates were blocked using 30 μL/well of 2% BSA (w/v) in PBS-T for over 30 minutes at room temperature. […] After washing in PBS as before, leaving each well in 40 μL of PBS, the plates were sealed and imaged on a Cell Insight imaging system (Thermo) with a 10× objective and 2 fields of view per well. POLR2A Ser2levels were normalized to controls and the IC50 values of test compounds determined using Genedata Screener software.

OVCAR3 cells = assay: Cellular proliferation EdU assay, OVCAR3; format: cell-based, human; details: Homo sapiens, OVCAR-3, 48 h, read-out: OVCAR3 IC50
Procedure: (§1) Compounds were tested to assess inhibition of cellular proliferation in the breast cancer cell line MCF-7 and the CCNE1-amplified ovarian cell line OVCAR3.
(§2) MCF-7 and OVCAR3 cells in RPMI supplemented with 10% Fetal bovine serum were seeded into 384-well plates (Greiner, Kremsmunster, Austria; 781091), 30 μL/well, using a WellMate. The MCF7 and OVCAR3 cells were seeded at 800 and 1200 cells/well, respectively. Test compounds were added to the wells using an Echo 555 liquid handler and the plates were placed in incubator maintained at 37° C. and 5% CO2 and incubated for two days. On Day 2, an EdU assay was performed following the manufacturer's protocol (Thermo Fisher, C10351). The cells were read on an Acumen eX3 instrument. The IC50 values of test compounds were determined in Genedata by assessing the ratio of signal intensity at 488 nm to the area of signal at 405 nm.

[2] = Aqueous thermodynamic solubility, shake-flask; format: physicochemical; details: aqueous phosphate buffer, 25 °C, pH 7.4, aqueous buffer, thermodynamic from solid, phosphate buffer 0.1 M, pH 7.4, 24 hours
Procedure: The DMSO was evaporated and the dried compounds were equilibrated in glass vials in aqueous phosphate buffer (0.1 M, pH 7.4) for 24 hours at 25° C. under constant stirring. The portion with the dissolved compound was then separated from the remainder through a double centrifugation with a tip wash in between to ensure that no residues of the dried compound were interfering. The solutions were diluted with purified water before quantification using UPLC/MS/MS.

MCF-7 cells = assay: Cellular proliferation EdU assay, MCF-7; format: cell-based; details: Homo sapiens, MCF7, 48 h, read-out: MCF-7 IC50
Procedure: as §1, §2

CDK2:CCNE1 = CDK2:CCNE1 (Homo sapiens (Human), UniProt P24941); assay: NanoBRET assay in MCF-7 cells, CDK2; format: cell-based; details: transfected MCF-7 cells, 2 hours, n = 1 or average
Procedure: Compounds were tested in breast cancer cell line MCF-7 to assess inhibition of CDK1, CDK2, and CDK4 activity. […] The next day media were evacuated from the wells using the Bluewasher centrifugal plate washer (Bluecatbio) and 10 μL/well phenol red free OptiMEM was then added using a Multidrop Combi. […] Immediately after compound addition, a Tecan HP300 dispensor was used to dispense the relevant NanoBRET™ tracer to the CDK1 wells (12.5 nl, 400 μM, NanoBRET™ TE Tracer K-9), the CDK2 wells (12.5 nl, 200 μM, NanoBRET™ TE Tracer K-9), and the CDK4 wells (8 nl, 100 μM, NanoBRET™ TE Tracer K-7) and the plates were incubated for 2 hours at 37° C. and 5% CO2. […] The plates were incubated in subdued lighting for 10 minutes and then read on a Pherastar FS plate reader (BMG Technologies) using a NanoBRET™ filter module (460±80 nm/610 nm-LP). The ratio values were normalized to controls and the IC50 values of test compounds determined using Genedata Screener software.

CDK1:CCNB1 = CDK1:CCNB1 (Homo sapiens (Human), UniProt P06493); assay: NanoBRET assay in MCF-7 cells, CDK1; format: cell-based; details: CDK1 IC50, NanoBRET, transfected MCF-7 cells, 2 hours; n = 1 or average
Sequence of CDK1:CCNB1 (P06493 whole entry): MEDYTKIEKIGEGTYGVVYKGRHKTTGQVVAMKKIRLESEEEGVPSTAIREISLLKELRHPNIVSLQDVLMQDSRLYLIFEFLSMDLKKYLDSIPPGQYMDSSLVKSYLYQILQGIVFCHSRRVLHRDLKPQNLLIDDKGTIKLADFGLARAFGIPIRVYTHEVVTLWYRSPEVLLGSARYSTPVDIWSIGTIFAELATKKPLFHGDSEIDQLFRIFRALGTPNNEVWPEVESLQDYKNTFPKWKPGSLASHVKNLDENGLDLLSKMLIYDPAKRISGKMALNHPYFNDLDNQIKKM
Sequence of CDK1:CCNB1 (P14635 whole entry partner): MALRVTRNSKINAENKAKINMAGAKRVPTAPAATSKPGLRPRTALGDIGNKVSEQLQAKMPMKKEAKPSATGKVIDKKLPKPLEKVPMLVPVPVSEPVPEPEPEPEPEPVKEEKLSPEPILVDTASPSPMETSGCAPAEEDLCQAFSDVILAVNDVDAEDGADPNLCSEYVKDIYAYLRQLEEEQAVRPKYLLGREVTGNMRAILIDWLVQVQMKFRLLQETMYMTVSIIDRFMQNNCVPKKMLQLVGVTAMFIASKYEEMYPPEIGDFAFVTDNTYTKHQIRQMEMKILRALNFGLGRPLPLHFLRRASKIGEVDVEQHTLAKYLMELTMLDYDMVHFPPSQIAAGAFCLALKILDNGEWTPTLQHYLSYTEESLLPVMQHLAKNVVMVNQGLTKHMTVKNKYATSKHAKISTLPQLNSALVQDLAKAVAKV
Procedure: (§3) Compounds were tested in breast cancer cell line MCF-7 to assess inhibition of CDK1, CDK2, and CDK4 activity. MCF-7 cells transiently transfected with CDK1:CCNB1, CDK2:CCNE1, or CDK4:CCND1 were harvested at a density of 1E5 cells/mL in complete media, seeded 20 μL/well into 384-well Greiner 784080 plates using a Multidrop Combi, and incubated overnight at 37° C. and 5% CO2. The next day media were evacuated from the wells using the Bluewasher centrifugal plate washer (Bluecatbio) and 10 μL/well phenol red free OptiMEM was then added using a Multidrop Combi. […] Immediately after compound addition, a Tecan HP300 dispensor was used to dispense the relevant NanoBRET™ tracer to the CDK1 wells (12.5 nl, 400 μM, NanoBRET™ TE Tracer K-9), the CDK2 wells (12.5 nl, 200 μM, NanoBRET™ TE Tracer K-9), and the CDK4 wells (8 nl, 100 μM, NanoBRET™ TE Tracer K-7) and the plates were incubated for 2 hours at 37° C. and 5% CO2. The plates were allowed to cool for 10 minutes at room temperature and 5 μL/well of TE Nano-Glo®Substrate/Inhibitor at 2.4 μM and 1:500 respectively (N2162 Promega) was added. The plates were incubated in subdued lighting for 10 minutes and then read on a Pherastar FS plate reader (BMG Technologies) using a NanoBRET™ filter module (460±80 nm/610 nm-LP). The ratio values were normalized to controls and the IC50 values of test compounds determined using Genedata Screener software.

CDK4:CCND1 = CDK4:CCND1 (Homo sapiens (Human), UniProt P11802); assay: NanoBRET assay in MCF-7 cells, CDK4; format: cell-based; details: CDK4 IC50, NanoBRET, transfected MCF-7 cells, 2 hours; n = 1 or average
Sequence of CDK4:CCND1 (P11802 whole entry): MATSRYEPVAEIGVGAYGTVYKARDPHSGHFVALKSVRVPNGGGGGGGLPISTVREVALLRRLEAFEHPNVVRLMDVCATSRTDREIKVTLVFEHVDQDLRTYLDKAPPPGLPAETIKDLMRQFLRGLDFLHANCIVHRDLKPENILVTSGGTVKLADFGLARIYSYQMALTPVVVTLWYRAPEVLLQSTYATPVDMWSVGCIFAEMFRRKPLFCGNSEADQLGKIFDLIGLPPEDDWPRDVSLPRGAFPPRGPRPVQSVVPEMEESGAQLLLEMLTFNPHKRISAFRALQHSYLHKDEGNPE
Sequence of CDK4:CCND1 (P24385 whole entry partner): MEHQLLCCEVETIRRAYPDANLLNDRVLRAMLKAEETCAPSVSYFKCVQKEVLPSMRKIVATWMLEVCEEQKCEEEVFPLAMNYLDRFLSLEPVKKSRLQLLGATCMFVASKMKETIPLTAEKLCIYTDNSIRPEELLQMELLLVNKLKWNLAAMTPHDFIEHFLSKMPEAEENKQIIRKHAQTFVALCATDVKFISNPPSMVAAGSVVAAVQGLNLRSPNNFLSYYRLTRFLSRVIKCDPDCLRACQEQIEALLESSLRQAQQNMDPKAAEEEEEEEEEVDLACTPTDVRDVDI
Procedure: as §3

[3] = test system: NPM phosphorylation (Thr199, CDK2-cyclin E complex); assay: NPM phosphorylation imaging assay in MCF-7 cells; format: cell-based; details: Homo sapiens, MCF7, 2 hours, 4N DNA cells
Procedure: Compounds were tested to assess the effects of CDK2 inhibition in a cellular context. […] During the cell cycle, the CDK2-cyclin E complex phosphorylates NPM at Thr199 which is a prerequisite step for initiation of centrosome duplication.
The cells were fixed by addition of 40 μL/well of 8% paraformaldehyde and incubated at room temperature for 10 minutes. The plates were washed three times with 50 μL/well PBS using a Biotek EL406 plate washer and then permeabilized for 10 minutes at room temperature in 0.3% Triton X100 in PBS. After washing as before, the plates were blocked using 30 μL/well of 2% BSA (w/v) in PBS-T for at least 30 minutes at room temperature. […] Cells containing 4N DNA were selected using the Hoechst staining. Phospho-NPM levels were normalized to controls and the IC50 values of test compounds determined using Genedata Screener software.

Row | SMILES | IC50 ([1]; MCF-7 cells, 2 hours) | IC50 (OVCAR3 cells; EdU assay, two days) | solubility at 24 h [2] | IC50 [1] | IC50 (MCF-7 cells; EdU assay, two days) | IC50 (CDK2:CCNE1) | IC50 (CDK1:CCNB1) | IC50 (CDK4:CCND1) | IC50 (MCF-7 cells) | IC50 (OVCAR3 cells) | IC50 [3]
1 | CC[C@H](Nc1nc(N[C@H]2CCN(S(=O)(=O)N[C@@H]3CCOC3)C2)c2ncn(CC)c2n1)[C@@H](C)O [Example 18, (S)-3-((9-ethyl-2-(((2R,3S)-2-hydroxypentan-3-yl)amino)-9H-purin-6-yl)amino)-N—((R)-tetrahydrofuran-3-yl)pyrrolidine-1-sulfonamide] | 23.6 µM | 169 nM | 726 µM (≈ 350 µg/mL) | – | – | – | – | – | – | – | –
2 | CCNS(=O)(=O)N1CC[C@H](Nc2nc(N[C@H](CC)[C@H](C)O)nc3c2ncn3CC)C1 [Example 11, (S)—N-ethyl-3-((9-ethyl-2-(((2S,3R)-2-hydroxypentan-3-yl)amino)-9H-purin-6-yl)amino)pyrrolidine-1-sulfonamide] | – | 1400 nM | – | > 30 µM | 3300 nM | – | – | – | – | – | –
3 | CC[C@H](Nc1nc(N[C@H]2CCN(S(=O)(=O)N3CC(F)C3)C2)c2ncn(CC)c2n1)[C@@H](C)O [Example 24, (2R,3S)-3-((9-ethyl-6-(((S)-1-((3-fluoroazetidin-1-yl)sulfonyl)pyrrolidin-3-yl)amino)-9H-purin-2-yl)amino)pentan-2-ol] | > 30 µM | 856 nM | 466 µM (≈ 219 µg/mL) | – | 2930 nM | – | – | – | – | – | –
4 | CCNS(=O)(=O)N1CC[C@H](Nc2nc(N[C@H](CC)C(C)=O)nc3c2ncn3CC)C1 [Example 12, (S)—N-ethyl-3-((9-ethyl-2-(((R)-2-oxopentan-3-yl)amino)-9H-purin-6-yl)amino)pyrrolidine-1-sulfonamide] | – | – | 955 µM (≈ 419 µg/mL) | > 30 µM | – | 88 nM | 7480 nM | > 29.7 µM | 3400 nM | 1560 nM | –
5 | CC[C@H](Nc1nc(N[C@H]2CCN(S(=O)(=O)NCC(F)F)C2)c2ncn(CC)c2n1)[C@@H](C)O [Example 5, (S)—N-(2,2-difluoroethyl)-3-((9-ethyl-2-(((2R,3S)-2-hydroxypentan-3-yl)amino)-9H-purin-6-yl)amino)pyrrolidine-1-sulfonamide] | > 30 µM | 154 nM | > 1000 µM | – | 917 nM | – | – | – | – | – | –
6 | CC[C@H](Nc1nc(N[C@H]2CCN(S(=O)(=O)NC)C2)c2ncn(CF)c2n1)[C@@H](C)O [Example 54, (S)-3-((9-(fluoromethyl)-2-(((2R,3S)-2-hydroxypentan-3-yl)amino)-9H-purin-6-yl)amino)-N-methylpyrrolidine-1-sulfonamide] | > 30 µM | 756 nM | 593 µM (≈ 255 µg/mL) | – | 1370 nM | – | – | – | – | – | 334 nM
7 | CC[C@H](Nc1nc(N[C@H]2CCN(S(=O)(=O)N[C@H]3CCOC3)C2)c2ncn(CC)c2n1)[C@@H](C)O [Example 22, (S)-3-((9-ethyl-2-(((2R,3S)-2-hydroxypentan-3-yl)amino)-9H-purin-6-yl)amino)-N—((S)-tetrahydrofuran-3-yl)pyrrolidine-1-sulfonamide] | > 30 µM | 298 nM | > 1000 µM | – | 1440 nM | – | – | – | – | – | –
8 | CC[C@H](Nc1nc(N[C@H]2CCN(S(=O)(=O)NCC(F)(F)F)C2)c2ncn(CC)c2n1)[C@@H](C)O [Example 4, (S)-3-((9-ethyl-2-(((2R,3S)-2-hydroxypentan-3-yl)amino)-9H-purin-6-yl)amino)-N-(2,2,2-trifluoroethyl)pyrrolidine-1-sulfonamide] | > 30 µM | 294 nM | 57 µM (≈ 28.2 µg/mL) | – | 685 nM | – | – | – | – | – | 164 nM
9 | CCNS(=O)(=O)N1CC[C@H](Nc2nc(N[C@@H](CC)[C@H](C)O)nc3c2ncn3CC)C1 [Example 8, (S)—N-ethyl-3-((9-ethyl-2-(((2S,3S)-2-hydroxypentan-3-yl)amino)-9H-purin-6-yl)amino)pyrrolidine-1-sulfonamide] | – | 1580 nM | – | > 30 µM | 4770 nM | – | – | – | – | – | –
10 | CC[C@H](Nc1nc(N[C@H]2CCN(S(=O)(=O)NC)C2)c2ncn(CC)c2n1)C(C)=O [Example 45, (S)-3-((9-ethyl-2-(((S)-2-oxopentan-3-yl)amino)-9H-purin-6-yl)-amino)-N-methylpyrrolidine-1-sulfonamide] | > 26.7 µM | 359 nM | – | – | 944 nM | 39 nM | 1890 nM | > 29.7 µM | – | – | –
11 | CCNS(=O)(=O)N1CC[C@H](Nc2nc(N[C@@H](CC)C(C)=O)nc3c2ncn3CC)C1 [Example 7, (S)—N-ethyl-3-((9-ethyl-2-(((S)-2-oxopentan-3-yl)amino)-9H-purin-6-yl)amino)pyrrolidine-1-sulfonamide] | – | – | 220 µM (≈ 96.5 µg/mL) | 24.2 µM | – | 13 nM | 591 nM | 19.1 µM | 486 nM | 203 nM | –
12 | CCNS(=O)(=O)N1CC[C@H](Nc2nc(N[C@H](CC)[C@@H](C)O)nc3c2ncn3CC)C1 (mixture of isomers) [Example 13, (S)—N-ethyl-3-((9-ethyl-2-(((2R,3R)-2-hydroxypentan-3-yl)amino)-9H-purin-6-yl)amino)pyrrolidine-1-sulfonamide] | – | 202 nM | – | > 30 µM | 490 nM | – | – | – | – | – | –
